Values of other authors as cited in article PMC4263154 (Journal of Clinical Pharmacology, 2013).
Entries after “also recorded” stand apart in the source; their conditions may differ. Where two headings read alike, the source gives them in different places.

Legend:
[1] = not given; remark: listed apart in the source
[2] = tested on: MC4R

Molecule	effect on body weight and energy intake (Phase 1 and 2 clinical trials)	erectogenic effect (clinical trial)	sexual arousal ([1]; females with sexual behavior disorders)	erectogenic activity ([1]; males with erectile dysfunction)	effect on food intake or energy expenditure ([2]; MC4R knock-out mice)	effect on food intake or energy expenditure ([2]; wild-type mice)
CC(=O)N[C@@H](C)c1cc(Cl)ccc1C1CCN(C(=O)[C@@H]2CN(C(C)(C)C)C[C@H]2c2ccc(F)cc2F)CC1 [MK-0493]	failed to demonstrate effect; also recorded: lack of efficacy	failed to demonstrate the same effect	–	–	–	–
melanotan-II	–	–	arousal	erectogenic activity	no effect	did exert these effects
